Assay in all cases: ≥ marks a high value that may be exact or a test limit, other limits are often not marked, values filed in µg/mL are converted to µM
For test [1], the system named is Escherichia coli ATCC 25922.
Test [2] relates to Staphylococcus aureus ATCC 25923.
The subject of test [3] is Pseudomonas aeruginosa ATCC 27853.
A further test has as its system Escherichia coli.

Values after ≈ are worked out from the molar mass of the structure shown.

This is an account of results in DBAASP.

Take `CC(C)C[C@H](NC(=O)CN)C(=O)N[C@@H](CC(C)C)C(=O)N[C@@H](CCCCN)C(=O)N[C@@H](CCCN=C(N)N)C(N)=O` [GLLKR]: the minimal inhibitory concentration (MIC) in test [1] and in test [2] was more than 52.9 µM in each case.

For the compound `CSCC[C@H](NC(=O)[C@H](CCCN=C(N)N)NC(=O)[C@H](Cc1c[nH]c2ccccc12)NC(=O)[C@H](C)NC(=O)[C@H](Cc1c[nH]c2ccccc12)NC(=O)[C@H](CCCN=C(N)N)NC(=O)[C@H](CCCN=C(N)N)NC(=O)[C@H](C)NC(=O)[C@H](CCCCN)NC(=O)[C@@H](N)Cc1ccc(O)cc1)C(=O)N[C@@H](CCCCN)C(=O)O` [YKARRWAWRMK], the minimal inhibitory concentration (MIC) was 32.2 µM (≈ 50 µg/mL) in test [1], 129 µM (≈ 200 µg/mL) in test [3] and 32.2 µM (≈ 50 µg/mL) in test [2].

For `CSCC[C@H](NC(=O)[C@H](CCCCN)NC(=O)[C@H](CCCCN)NC(=O)[C@H](CCCCN)NC(=O)[C@H](CCCN=C(N)N)NC(=O)[C@H](CCCN=C(N)N)NC(=O)[C@H](Cc1ccc(O)cc1)NC(=O)[C@@H](N)CCCN=C(N)N)C(=O)N[C@@H](CCCCN)C(=O)N[C@@H](CCCCN)C(=O)N[C@@H](C)C(=O)N[C@@H](CC(C)C)C(=O)N[C@@H](CCC(N)=O)C(=O)N[C@@H](Cc1ccc(O)cc1)C(N)=O` [RYRRKKKMKKALQY], the MIC in test [1] and in test [3] was more than 100 µM in each case.

`CC[C@H](C)[C@H](NC(=O)[C@H](Cc1c[nH]c2ccccc12)NC(=O)[C@H](CCCCN)NC(=O)[C@@H]1CCCN1C(=O)[C@H](CC(C)C)NC(=O)[C@@H](N)CCCCN)C(=O)N[C@H](C(=O)N[C@@H](CCCCN)C(=O)N[C@H](C(=O)N[C@H](C(=O)N[C@@H](CC(N)=O)C(=O)N[C@@H](CCCCN)C(=O)N[C@@H](Cc1ccccc1)C(=O)N[C@H](C(=O)N[C@@H](CCCCN)C(=O)N[C@@H](CCCCN)C(=O)O)[C@@H](C)O)C(C)C)[C@@H](C)O)[C@@H](C)CC` [KLPKWIIKTVNKFTKK] displayed an MIC in the test on Escherichia coli of 3.3 µM (≈ 6.51 µg/mL). This counts as single-digit micromolar.

`CC[C@H](C)[C@H](NC(=O)[C@H](CO)NC(=O)[C@H](Cc1ccccc1)NC(=O)[C@H](CC(C)C)NC(=O)[C@H](C)N)C(=O)N[C@@H](CC(C)C)C(=O)N[C@@H](CCCN=C(N)N)C(=O)NCC(=O)N[C@@H](CC(C)C)C(=O)N[C@@H](CCCCN)C(=O)N[C@@H](CCCCN)C(=O)N[C@@H](CC(C)C)C(=O)NCC(=O)N[C@@H](CC(N)=O)C(=O)N[C@@H](CCSC)C(=O)NCC(=O)N[C@@H](CCC(N)=O)C(=O)N[C@@H](C)C(=O)N[C@@H](Cc1ccccc1)C(=O)N[C@H](C(=O)N[C@@H](CC(N)=O)C(=O)N[C@H]1CSSC[C@@H](C(=O)O)NC(=O)[C@H](CCCCN)NC(=O)[C@H](CCCCN)NC(=O)[C@H](Cc2ccc(O)cc2)NC(=O)[C@H]([C@@H](C)CC)NC(=O)[C@H](CCCCN)NC1=O)C(C)C` [ALFSILRGLKKLGNMGQAFVNCKIYKKC] had an MIC in test [1] of 8 µM (≈ 25.1 µg/mL). In other words, the single-digit micromolar range.

Compound `CC[C@H](C)[C@H](NC(=O)CN)C(=O)N[C@@H](CCSC)C(=O)N[C@@H](CC(=O)O)C(=O)N[C@@H](CO)C(=O)N[C@H](C(=O)N[C@@H](CCCCN)C(=O)N[C@@H](CC(N)=O)C(=O)N[C@H](C(=O)N[C@@H](C)C(=O)N[C@@H](CCCCN)C(=O)N[C@@H](CC(N)=O)C(=O)N[C@H](C(=O)N[C@@H](C)C(=O)NCC(=O)N[C@@H](CCC(N)=O)C(=O)N[C@@H](CC(C)C)C(=O)N[C@@H](CC(C)C)C(=O)N[C@@H](CC(=O)O)C(=O)N[C@@H](CCCCN)C(=O)N[C@@H](CC(C)C)C(=O)N[C@@H](CCCCN)C(=O)N[C@H]1CSSC[C@@H](C(=O)O)NC(=O)CNC(=O)[C@H]([C@@H](C)O)NC(=O)[C@H]([C@@H](C)CC)NC(=O)[C@H](CCCCN)NC1=O)[C@@H](C)CC)C(C)C)C(C)C` [GIMDSVKNVAKNIAGQLLDKLKCKITGC] came in with a minimum inhibitory concentration (MIC) in test [1] of 16 µM (≈ 47.4 µg/mL). This MIC lies about 2-fold higher than the previous one.

For `CC(C)C[C@H](NC(=O)[C@H](CCCCN)NC(=O)CNC(=O)[C@H](CC(C)C)NC(=O)[C@H](CCCCN)NC(=O)[C@H](CCCCN)NC(=O)CNC(=O)[C@H](CC(C)C)NC(=O)[C@H](CCCCN)NC(=O)CNC(=O)[C@H](CC(C)C)NC(=O)[C@H](CCCCN)NC(=O)[C@H](CCCCN)NC(=O)CNC(=O)[C@H](CC(C)C)NC(=O)[C@@H](N)CCCCN)C(=O)NCC(=O)N[C@@H](CCCCN)C(=O)N[C@@H](CCCCN)C(=O)N[C@@H](CC(C)C)C(=O)NCC(N)=O` [KLGKKLGKLGKKLGKLGKKLG], the MIC in test [1], in test [3] and in test [2] was 4 µM (≈ 8.77 µg/mL) throughout.

In the case of `CC[C@H](C)[C@H](NC(=O)[C@H](CC(=O)O)NC(=O)[C@@H](NC(=O)[C@@H](NC(=O)CN)C(C)C)C(C)C)C(=O)N[C@@H](CC(C)C)C(=O)N[C@@H](CCCCN)C(=O)NCC(=O)N[C@@H](C)C(=O)N[C@@H](C)C(=O)N[C@@H](CCCCN)C(=O)N[C@@H](CC(=O)O)C(=O)N[C@@H](CC(C)C)C(=O)N[C@@H](C)C(=O)NCC(=O)N[C@@H](Cc1cnc[nH]1)C(=O)O` [GVVDILKGAAKDLAGH], the figures for the MIC in test [1] and in test [2] were 79.9 µM (≈ 125 µg/mL) and 20 µM (≈ 31.3 µg/mL), respectively.

For `CC(C)C[C@H](NC(=O)[C@H](CCC(N)=O)NC(=O)[C@H](CCCCN)NC(=O)[C@H](CCCN=C(N)N)NC(=O)[C@H](Cc1ccccc1)NC(=O)[C@H](C)N)C(=O)N[C@@H](CCCCN)C(=O)N[C@@H](Cc1c[nH]c2ccccc12)C(=O)O` [AFRKQLKW], the minimal inhibitory concentration (MIC) in test [1] was 3.72 µM (≈ 4 µg/mL).

Take `CC[C@H](C)[C@H](NC(=O)[C@H](CCCN=C(N)N)NC(=O)[C@@H](NC(=O)[C@H](CC(C)C)NC(=O)[C@H](CC(C)C)NC(=O)CN)[C@@H](C)O)C(=O)N[C@@H](CCCCN)C(=O)N[C@H](C(=O)N[C@@H](CC(C)C)C(=O)N[C@@H](CC(C)C)C(N)=O)[C@@H](C)O` [GLLTRIKTLL]: the MIC in test [1] was 200 µM (≈ 225 µg/mL). Compared with the last compound, the MIC is about 54-fold higher.

Turning to `CC(C)C[C@H](NC(=O)[C@H](CCCCN)NC(=O)[C@H](CCCCN)NC(=O)[C@H](C)NC(=O)[C@H](CC(C)C)NC(=O)[C@@H](N)CCCCN)C(=O)N[C@@H](C)C(N)=O` [KLAKKLA], the minimum inhibitory concentration (MIC) in test [1], in test [3] and in test [2] was more than 100 µM in each case.

On to `CSCC[C@H](NC(=O)[C@H](CCCN=C(N)N)NC(=O)[C@H](Cc1c[nH]c2ccccc12)NC(=O)[C@H](C)NC(=O)[C@H](Cc1c[nH]c2ccccc12)NC(=O)[C@H](CCCN=C(N)N)NC(=O)[C@H](CCCN=C(N)N)NC(=O)[C@H](C)NC(=O)[C@H](CCCCN)NC(=O)[C@H](Cc1ccccc1)NC(=O)[C@H](Cc1c[nH]c2ccccc12)NC(=O)[C@H](C)NC(=O)[C@@H]1CCCN1)C(=O)N[C@@H](CC(C)C)C(=O)N[C@@H](CCCCN)C(=O)N[C@@H](CCCCN)C(=O)N[C@@H](C)C(=O)N[C@@H](C)C(=O)O` [PAWFKARRWAWRMLKKAA], for which the MIC in test [1] is 4.4 µM (≈ 10 µg/mL); in test [2] it was 2.2 µM (≈ 5 µg/mL).

`CC(C)C[C@H](NC(=O)[C@H](Cc1ccccc1)NC(=O)[C@@H]1CCCN1C(=O)[C@H](Cc1c[nH]c2ccccc12)NC(=O)[C@H](C)NC(=O)[C@H](C)NC(=O)[C@@H]1CCCN1C(=O)[C@H](Cc1ccccc1)NC(=O)[C@H](CCCN=C(N)N)NC(=O)[C@H](CCCN=C(N)N)NC(=O)[C@@H](N)C(C)C)C(=O)N[C@@H](CCCN=C(N)N)C(=O)N[C@@H](CCCN=C(N)N)C(N)=O` [VRRFPAAWPFLRR]: the minimum inhibitory concentration (MIC) in test [1] was determined as 90.5 µM (≈ 151 µg/mL).

Turning to `CC[C@H](C)[C@H](NC(=O)[C@H](CCCCN)NC(=O)[C@@H](N)Cc1ccccc1)C(=O)N[C@@H](CCCCN)C(=O)N[C@@H](C)C(=O)N[C@@H](CO)C(=O)N[C@@H](CCCCN)C(=O)N[C@@H](CCCCN)C(=O)N[C@@H](CC(C)C)C(=O)N[C@@H](CC(C)C)C(=O)N[C@@H](CCCCN)C(=O)N[C@@H](CCCCN)C(=O)N[C@H](C(=O)NCC(=O)N[C@@H](CCCCN)C(=O)NCC(=O)N[C@@H](C)C(=O)N[C@@H](CC(C)C)C(=O)NCC(=O)N[C@@H](C)C(=O)N[C@H](C(=O)N[C@@H](C)C(=O)N[C@@H](CCCCN)C(=O)N[C@@H](C)C(=O)N[C@@H](CC(C)C)C(=O)N[C@@H](C)C(=O)N[C@@H](CCC(N)=O)C(=O)N[C@@H](CCC(N)=O)C(=O)N[C@@H](C)C(=O)O)C(C)C)C(C)C` [FKIKASKKLLKKVGKGALGAVAKALAQQA], in test [3], the minimum inhibitory concentration (MIC) was 0.5 µM (≈ 1.48 µg/mL).

In the case of `NC(=O)[C@H](CCCN=C(N)N)NC(=O)[C@H](Cc1c[nH]c2ccccc12)NC(=O)[C@H](Cc1ccc(O)cc1)NC(=O)[C@H](CCCN=C(N)N)NC(=O)[C@H](Cc1c[nH]c2ccccc12)NC(=O)[C@H](Cc1c[nH]c2ccccc12)NC(=O)[C@@H](N)CCCN=C(N)N` [RWWRYWR], the MIC was 8.28 µM (≈ 9.99 µg/mL) in test [1], 16.6 µM (≈ 20 µg/mL) in test [3] and 2.07 µM (≈ 2.5 µg/mL) in test [2].

As for `C[C@H](NC(=O)[C@H](C)NC(=O)[C@H](CCCCN)NC(=O)[C@H](CCCCN)NC(=O)[C@H](C)NC(=O)[C@H](C)NC(=O)[C@H](CCCCN)NC(=O)[C@H](C)NC(=O)[C@H](C)NC(=O)[C@H](CCCCN)NC(=O)[C@H](CCCCN)NC(=O)[C@H](C)NC(=O)[C@H](C)NC(=O)[C@@H](N)CCCCN)C(N)=O` [KAAKKAAKAAKKAA], the results for the minimum inhibitory concentration (MIC) in test [1] and in test [2] were 47 µM (≈ 63.7 µg/mL) and more than 256 µM, respectively.

Consider `CC[C@H](C)[C@H](NC(=O)CN)C(=O)NCC(=O)N[C@@H](CCCCN)C(=O)N[C@@H](Cc1ccccc1)C(=O)N[C@@H](CC(C)C)C(=O)N[C@@H](Cc1cnc[nH]1)C(=O)N[C@@H](CO)C(=O)N[C@@H](C)C(=O)N[C@@H](CCCCN)C(=O)N[C@@H](CCCCN)C(=O)N[C@@H](Cc1ccccc1)C(=O)NCC(=O)N[C@@H](CCCCN)C(=O)N[C@@H](C)C(=O)N[C@@H](Cc1ccccc1)C(=O)N[C@H](C(=O)NCC(=O)N[C@@H](CCC(=O)O)C(=O)N[C@H](C(=O)N[C@@H](CCSC)C(=O)N[C@@H](CC(N)=O)C(=O)N[C@@H](CO)C(=O)NCC(=O)NCC(=O)N[C@@H](CS)C(N)=O)[C@@H](C)CC)C(C)C` [GIGKFLHSAKKFGKAFVGEIMNSGGC], for which the MIC in test [1] came to 3.1 µM (≈ 8.32 µg/mL).

The term MIC denotes the lowest concentration found to suppress growth. Higher therefore signals a less susceptible organism.
